How the values were obtained:
[1] = target: T1, human β2-adrenergic receptor (Homo sapiens, UniProt P07550); assay: cAMP accumulation (SPA) in CHO cells transfected with human β2 adrenergic receptor; format: cell-based; conditions: for EC50: CHO cells transfected with human β2-AR, cAMP, 15 min incubation, 10^−8 to 10^−4 M, read-out: beta-2 EC50; for beta-2 (IA) maximal response relative to isoproterenol: IA = % activity compound / % activity isoproterenol at 10^−5 M, CHO human β2 cells
T1 construct: expressed in transfected cells; host or cells: CHO cells
Summary of the method: (§1)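 CHO cell clones expressing 70–110 fmol/mg protein of receptor were pre-incubated 30 min at 37 °C, then treated 15 min at 37 °C with compound (10^−8 to 10^−4 M) in DMEM with 250 μM IBMX and 1 mM ascorbic acid. cAMP was read by SPA after acid stop. EC50 and IA were expressed relative to maximal 10^−5 M isoproterenol response.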

[2] = target: T2, human β1-adrenergic receptor (Homo sapiens, UniProt P08588); assay: cAMP accumulation (SPA) in CHO cells transfected with human β1 adrenergic receptor; format: cell-based; conditions: for EC50: CHO cells transfected with human β1-AR, cAMP, 15 min incubation, 10^−8 to 10^−4 M, read-out: beta-1 EC50; for beta-1 (IA) maximal response relative to isoproterenol: IA = % activity compound / % activity isoproterenol at 10^−5 M, CHO human β1 cells
T2 construct: expressed in transfected cells; host or cells: CHO cells
Summary of the method: as §1

[3] = target: T3, human β3 adrenergic receptor (Homo sapiens, UniProt P13945); assay: cAMP accumulation (SPA) in CHO cells transfected with human β3 adrenergic receptor; format: cell-based; conditions: for EC50: CHO cells expressing human β3-AR, cAMP, 30 min incubation, 10^−9 M to 10^−5 M, read-out: beta-3 EC50; for beta-3 (IA) maximal response relative to isoproterenol: IA = % activity compound / % activity isoproterenol at 10^−5 M, CHO human β3 cells
T3 construct: Full length β3 AR clones (402 amino acids) containing the last 6 amino acids of hβ3— AR are prepared; expressed in transfected cells; host or cells: CHO cells
Summary of the method: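 CHO cells expressing human β3-AR (70–110 fmol/mg protein) treated with compound at 10^−9 to 10^−5 M in DMEM with 250 μM IBMX and 1 mM ascorbic acid, 30 min, 37 °C. cAMP measured by SPA; EC50 derived, and intrinsic activity expressed relative to the maximal response of 10^−5 M isoproterenol.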

T3 sequence (P13945 whole entry): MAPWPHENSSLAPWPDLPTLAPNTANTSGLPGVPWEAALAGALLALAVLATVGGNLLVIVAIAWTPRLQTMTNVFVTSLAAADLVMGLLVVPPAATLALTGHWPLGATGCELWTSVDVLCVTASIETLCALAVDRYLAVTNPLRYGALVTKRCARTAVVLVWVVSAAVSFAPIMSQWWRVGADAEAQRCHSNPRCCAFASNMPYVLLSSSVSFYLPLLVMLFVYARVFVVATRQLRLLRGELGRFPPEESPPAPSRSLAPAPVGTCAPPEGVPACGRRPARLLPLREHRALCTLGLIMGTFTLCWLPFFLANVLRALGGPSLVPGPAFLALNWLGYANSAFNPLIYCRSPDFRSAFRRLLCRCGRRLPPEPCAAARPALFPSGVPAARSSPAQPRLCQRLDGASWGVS
T1 sequence (P07550 whole entry): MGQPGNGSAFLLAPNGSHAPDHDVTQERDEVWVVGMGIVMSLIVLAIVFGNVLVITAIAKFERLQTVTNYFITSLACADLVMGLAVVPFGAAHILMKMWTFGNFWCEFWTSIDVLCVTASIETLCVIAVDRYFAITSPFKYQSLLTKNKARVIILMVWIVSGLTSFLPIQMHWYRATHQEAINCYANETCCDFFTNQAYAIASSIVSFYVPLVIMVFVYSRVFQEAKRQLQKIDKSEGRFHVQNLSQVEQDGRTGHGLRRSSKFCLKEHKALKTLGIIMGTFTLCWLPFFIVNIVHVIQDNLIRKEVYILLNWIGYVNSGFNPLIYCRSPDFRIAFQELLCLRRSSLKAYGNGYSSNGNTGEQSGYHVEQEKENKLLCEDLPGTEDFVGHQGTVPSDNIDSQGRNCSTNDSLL
T2 sequence (P08588 whole entry): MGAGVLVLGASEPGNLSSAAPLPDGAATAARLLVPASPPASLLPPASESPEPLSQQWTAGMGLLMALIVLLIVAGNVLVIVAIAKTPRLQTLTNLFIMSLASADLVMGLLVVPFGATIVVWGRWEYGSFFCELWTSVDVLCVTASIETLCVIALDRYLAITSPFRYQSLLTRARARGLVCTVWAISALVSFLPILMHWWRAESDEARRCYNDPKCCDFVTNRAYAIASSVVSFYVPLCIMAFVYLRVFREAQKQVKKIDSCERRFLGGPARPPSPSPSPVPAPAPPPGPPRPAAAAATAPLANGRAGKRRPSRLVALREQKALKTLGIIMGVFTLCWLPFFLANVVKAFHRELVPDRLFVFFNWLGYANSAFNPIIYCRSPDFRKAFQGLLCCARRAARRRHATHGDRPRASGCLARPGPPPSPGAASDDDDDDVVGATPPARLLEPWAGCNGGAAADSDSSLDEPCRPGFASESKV

SMILES | EC50 [1] | beta-2 (IA) maximal response relative to isoproterenol [1] | EC50 [2] | beta-1 (IA) maximal response relative to isoproterenol [2] | EC50 [3] | beta-3 (IA) maximal response relative to isoproterenol [3] | melting point
COc1ccc(NS(=O)(=O)c2ccc(N3CCC(NCC(O)c4ccc(O)c(NS(C)(=O)=O)c4)CC3)cc2)cc1OC (stereo not drawn) [Example 8, N-(3,4-Dimethoxy-phenyl)-4-{4-[2-hydroxy-2-(4-hydroxy-3-methanesulfonylamino-phenyl)-ethylamino]-piperidin-1-yl}-benzenesulfonamide] | 610 nM | (0.28) | 3600 nM | (0.41) | 16 nM | (0.91) | 205 to 218 °C
CC(C)OC(=O)C1CCCN1S(=O)(=O)c1ccc(N2CCC(NCC(O)c3ccc(O)c(NS(C)(=O)=O)c3)CC2)cc1 (stereo not drawn) [Example 15, 1-(4-{4-[2-Hydroxy-2-(4-hydroxy-3-methanesulfonylamino-phenyl)-ethylamino]-piperidin-1-yl}-benzenesulfonyl)-pyrrolidine-2-carboxylic Acid Isopropyl Ester] | 160 nM | (0.37) | 13000 nM | (0.23) | 1 nM | (1) | 52 to 58 °C
CC#CCC(CC#CC)(C(=O)OC(C)(C)C)S(=O)(=O)c1ccc(N2CCC(NC[C@H](O)c3ccc(O)c(NS(C)(=O)=O)c3)CC2)cc1 [Example 47, 2-(2-Butynyl)-2-[(4-{4-[((2R)-2-hydroxy-2-{4-hydroxy-3-[(methylsulfonyl)amino]-phenyl}ethyl)amino]-1-piperidinyl}phenyl)sulfonyl]-4-hexynoicacid tert-Butyl Ester] | 3200 nM | (0.46) | 1000 nM | (0.47) | 6 nM | (0.93) | 93 to 95 °C
CS(=O)(=O)Nc1cc([C@@H](O)CNC2CCN(c3ccc(S(=O)(=O)N4CC(=O)NC4=O)cc3)CC2)ccc1O [Example 50, N-[5-((1R)-2-{1-[4-(2,4-Dioxo-imidazolidine-1-sulfonyl)-phenyl]piperidin-4-ylamino}-1-hydroxy-ethyl)-2-hydroxy-phenyl]-methanesulfonamide] | 7000 nM | (0.35) | 2600 nM | (0.72) | 10 nM | (1) | 200 to 202 °C
CS(=O)(=O)Nc1cc([C@@H](O)CNC2CCN(c3ccc(S(=O)(=O)N4CCC[C@H]4C(=O)OCc4ccccc4)cc3)CC2)ccc1O [Example 22, (2S)-1-(4-{4-[(2R)-2-Hydroxy-2-(4-hydroxy-3-methanesulfonylamino-phenyl)-ethylamino]-piperidin-1-yl}-benzenesulfonyl)-pyrrolidine-2-carboxylic Acid Benzyl Ester] | 40 nM | (0.63) | 200 nM | (1.08) | 2 nM | (1) | 65 to 71 °C
CCCCNC(=O)NS(=O)(=O)c1ccc(N2CCC(NC[C@H](O)c3ccc(O)c(NS(C)(=O)=O)c3)CC2)cc1 [Example 62, 1-[4-({[(Butylamino)carbonyl]amino}sulfonyl)phenyl]-4-[((2)-2-hydroxy-2-{4-hydroxy-3-[(methylsulfonyl)amino]phenyl}ethyl)amino]piperidine] | 5000 nM | (0.31) | 5000 nM | (0.32) | 9 nM | (1) | 100 to 102 °C
CCOC(=O)CN(Cc1cc(F)ccc1F)S(=O)(=O)c1ccc(N2CCC(NC[C@H](O)c3ccc(O)c(NS(C)(=O)=O)c3)CC2)cc1 [Example 61, Ethyl {(2,5-Difluorobenzyl)[(4-{4-[((2R)-2-hydroxy-2-{4-hydroxy-3-[(methyl-sulfonyl)amino]phenyl}ethyl)amino]piperidin-1-yl}phenyl)sulfonyl]amino}acetate] |  | (0.2) | 1900 nM | (0.3) | 1 nM | (1.1) | 85 to 90 °C
CN1CCN(S(=O)(=O)c2ccc(N3CCC(NC[C@H](O)c4ccc(O)c(NS(C)(=O)=O)c4)CC3)cc2)CC1 [Example 66, N-(2-Hydroxy-5-{(1R)-1-hydroxy-2-[(1-{4-[(4-methylpiperazin-1-yl)sulfonyl]phenyl}piperidin-4-yl)amino]ethyl}phenyl)methanesulfonamide] |  | (0.17) | 2700 nM | (0.44) | 25 nM | (0.95) | 89 to 91 °C
CC(C)OC(=O)C1CCCN1S(=O)(=O)c1ccc(N2CCC(NCC(O)COc3cccc4[nH]c(=O)[nH]c34)CC2)cc1 (stereo not drawn) [Example 16, 1-(4-{4-[2-Hydroxy-3-(2-oxo-2,3-dihydro-1H-benzoimidazol-4-yloxy)-propylamino]-piperidin-1-yl}-benzenesulfonyl)-pyrrolidine-2-carboxylic Acid Isopropyl Ester] |  |  |  |  | 3 nM | (0.86) | 74 to 83 °C

Results, then the compound that gave them:

EC50 [1] | beta-2 (IA) maximal response relative to isoproterenol [1] | EC50 [2] | beta-1 (IA) maximal response relative to isoproterenol [2] | EC50 [3] | beta-3 (IA) maximal response relative to isoproterenol [3] | melting point | SMILES
 |  |  |  | 50 nM | (0.7) | 166 to 179 °C | CCCCNS(=O)(=O)c1ccc(N2CCC(NC[C@H](O)COc3cccc4[nH]c5ccccc5c34)CC2)cc1 [Example 13, N-Butyl-4-{4-[(2S)-3-(9H-carbazol-4-yloxy)-2-hydroxy-propylamino]-piperidin-1-yl}-benzenesulfonamide]
 |  |  |  | 330 nM | (0.83) | 101 to 106 °C | COc1ccc(NS(=O)(=O)c2ccc(N3CCC(NC[C@H](O)COc4ccc(O)cc4)CC3)cc2)cc1OC [Example 11, N-(3,4-Dimethoxy-phenyl)-4-{4-[(2S)-2-hydroxy-3-(4-hydroxy-phenoxy)-propylamino]-piperidin-1-yl}-benzenesulfonamide]
 |  |  |  | 10 nM | (1) | 69 to 75 °C | CCCCNS(=O)(=O)c1ccc(N2CCC(NC[C@H](O)COc3cccc4[nH]c(=O)[nH]c34)CC2)cc1 [Example 12, N-Butyl-4-{4-[(2S)-2-hydroxy-3-(2-oxo-2,3-dihydro-1H-benzoimidazol-4-yloxy)-propylamino]-piperidin-1-yl}-benzenesulfonamide]
 |  |  |  | 9 nM | (1.1) | 130 to 132 °C | Cc1ccc(S(=O)(=O)c2ccc(N3CCC(NC[C@H](O)COc4cccc5[nH]c(=O)[nH]c45)CC3)cc2)cc1 [Example 46, 4-((2S)-2-Hydroxy-3-{1-[4-(toluene-4-sulfonyl)-phenyl]-piperidin-4-ylamino}-propoxy)-1,3-dihydro-benzoimidazol-2-one]
 |  |  |  | 100 nM | (0.45) | 58 to 64 °C | COc1ccc(NS(=O)(=O)c2ccc(N3CCC(NC[C@H](O)COc4cccc5[nH]c6ccccc6c45)CC3)cc2)cc1OC [Example 10, 4-{4-[(2S)-3-(9H-Carbazol-4-yloxy)-2-hydroxy-propylamino]-piperidin-1-yl}-N-(3,4-dimethoxy-phenyl)-benzenesulfonamide]
 |  |  |  | 28 nM | (0.81) | 36 to 39 °C | CNC(=O)C1CCCN1S(=O)(=O)c1ccc(N2CCC(NC[C@H](O)COc3cccc4[nH]c(=O)[nH]c34)CC2)cc1 (stereo partly drawn) [Example 17, 1-(4-{4-[(2S)-2-Hydroxy-3-(2-oxo-2,3-dihydro-1H-benzoimidazol-4-yloxy)-propylamino]-piperidin-1-yl}-benzenesulfonyl)-pyrrolidine-2-carboxylic Acid Methylamide]
 |  |  |  | 9 nM | (0.96) | 230 °C (dec.) | O=C1CN(S(=O)(=O)c2ccc(N3CCC(NC[C@H](O)COc4cccc5[nH]c(=O)[nH]c45)CC3)cc2)C(=O)N1 [Example 49, 1-(4-{4-[(2S)-2-Hydroxy-3-(2-oxo-2,3-dihydro-1H-benzoimidazol-4-yloxy)-propylamino]-piperidin-1-yl}-benzenesulfonyl)-imidazolidine-2,4-dione]

From US6444685B1, “N-(4-sulfonylaryl)Cyclylamine 2-hydroxyethylamines as beta-3 adrenergic receptor agonists” (Wyeth, priority 2000, dated 2002)
